For orientation: IC50 means the concentration that inhibits the measured activity by half.

The results in this text go back to article PMC10974290, “Biocatalytic Synthesis of Coumarin S-Glycosides: Towards Non-Cytotoxic Probes for Biomedical Imaging and Sensing” (Molecules, 2024).

Each structure is given as a SMILES string. Where only a bound is given, the exact number is not on record here.

For this assay, the system named is MCF-7 (breast adenocarcinoma). The assay can be described thus: MTT cell proliferation assay, MCF-7. Format: cell-based. Conditions: Homo sapiens, MCF7, 72 h incubation, 95% confidence interval in parentheses. Here is the method:
To use these S-glycosidic compounds in cellulo, the potential impact of the glycosidic linkage nature on the anticancer activity was assessed. The S-glycoside derivatives and the 7-MC were tested against four human cancer cell lines and a healthy one, namely A549 (lung carcinoma), HS-683 (glioma cancer), MCF-7 (breast adenocarcinoma), SK-MEL-28 (melanoma skin cancer), and HaCaT (keratinocyte normal skin), using MTT (thiazolyl blue tetrazolium bromide, Sigma-Aldrich, St. Louis, MO, USA) assay, as previously described in the literature. The selected reference drugs were 5-fluorouracil (5-FU) and etoposide.
Cell proliferation of five distinct cell lines was evaluated using the colorimetric MTT (thiazolyl blue tetrazolium bromide, Sigma) assay. Human keratinocyte normal skin HaCaT was cultivated in DMEM supplemented with 4.5 g/L glucose, 2 mM L-glutamine, and 10% FBS. Cancer cell lines and their respective growth media were obtained from CLS Cell Line Service GmbH (Eppelheim, Germany). Specifically, human skin melanoma SK-MEL-28 and human brain glioma HS683 were cultivated in DMEM with identical supplements as HaCaT cells. The human lung carcinoma cell line A-549 was grown in DMEM/Ham’s F12 (1:1) medium supplemented with 2 mM L-glutamine and 5% FBS. Additionally, human breast adenoma carcinoma MCF-7 cells were sustained in EMEM supplemented with 2 mM L-glutamine, sodium pyruvate, non-essential amino acids (NEAAs), 10 µg/mL insulin human, and 10% FBS. The MTT assay relies on the reduction of the yellow product thiazolyl blue tetrazolium bromide (MTT) to formazan, a purple-blue product, by mitochondrial dehydrogenases in metabolically active cells. The number of living cells after incubation in the presence (or absence, control) of the tested molecules is directly proportional to the blue color, which was measured by spectrophotometry. To perform the assay, cells were initially seeded at a density of 2500 cells/mL in 96-well culture plates (Nunc™ Edge 2.0, Fisher) and allowed to adhere and proliferate over a 24-hour incubation period. Following this, the cells were treated with various concentrations of the tested compounds, which were previously prepared as serial dilutions and dissolved in 0.1% DMSO. These stable solutions guarantee the consistency of experimental conditions over extended periods. Each concentration of the tested compounds underwent triplicate testing (n = 3), and cells were subsequently incubated for 72 h to allow for thorough evaluation. Following this incubation period, MTT reagent (5 mg/mL solution in PBS) was introduced to each well (10% v/v), and cells were further incubated for 4 h. Then, the culture medium was carefully removed, and the resulting blue formazan crystals were dissolved in 100 µL of 100% DMSO. Absorbance readings were taken at 540 nm, referencing a wavelength of 620 nm, using a spectrophotometer. In determining the IC50, the absorbance of serial dilutions of each cell line, treated under identical conditions but without the presence of the tested compounds, was measured.
A general note: Tetrazolium assays rely on reduction of a dye to a coloured formazan, in cell work by metabolically active cells.
Turning to `Cc1cc(=O)oc2cc(S)ccc12` [Compound 7-MC, 7-mercapto-4-methylcoumarin, reference compound], the IC50 is above 1000 µM.

As for `Cc1cc(=O)oc2cc(S[C@@H]3O[C@H](C(=O)O)[C@@H](O)[C@H](O)[C@H]3O)ccc12` [Compound S-1, 4-Methylumbellifer-7-yl 1-thio-β-D-glucopyranosiduronic acid], the IC50 was above 1000 µM.

Regarding `Cc1cc(=O)oc2cc(S[C@@H]3OC[C@@H](O)[C@H](O)[C@H]3O)ccc12` [Compound S-2, 4-Methylumbellifer-7-yl 1-thio-β-D-xylopyranoside], the IC50 turned out to be 128 µM.

On to `Cc1cc(=O)oc2cc(S[C@@H]3O[C@H](CO)[C@@H](O)[C@H](O)[C@H]3O)ccc12` [Compound S-3, 4-Methylumbellifer-7-yl 1-thio-β-D-glucopyranoside], for which the IC50 was above 1000 µM.

In the case of `Cc1cc(=O)oc2cc(S[C@@H]3O[C@H](CO)[C@H](O)[C@H](O)[C@H]3O)ccc12` [Compound S-4, 4-Methylumbellifer-7-yl 1-thio-β-D-galactopyranoside], the half-inhibitory concentration (IC50) was above 1000 µM.

In the case of `Cc1cc(=O)oc2cc(S[C@@H]3O[C@H](C)[C@H](O)[C@H](O)[C@H]3O)ccc12` [Compound S-5, 4-Methylumbellifer-7-yl 1-thio-β-D-fucopyranoside], the IC50 is above 1000 µM.

Turning to `Cc1cc(=O)oc2cc(S[C@H]3O[C@H](CO)[C@H](O)[C@H](O)[C@H]3O)ccc12` [Compound S-6, 4-Methylumbellifer-7-yl 1-thio-α-D-galactopyranoside], the IC50 was above 1000 µM.
